Experimental data as given in PubChem BioAssay (NCI).
Several values for one entry are separate records, joined by “and”; a condition that tells them apart may be missing. Identical values can stand only once.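 A five-concentration, 48-hour dose response in 96-well plates underlies each endpoint, interpolated linearly between surrounding concentrations. Here, GI50 denotes the concentration required for 50% inhibition of growth. Definition used: TGI = concentration required for complete inhibition of growth.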

Experiments:
Experiment in all cases: NCI-60 cell line screen, 48 h
A549 NSCLC = tested on: A549 NSCLC
CAKI-1 renal = tested on: CAKI-1 renal
CCRF-CEM leukemia = tested on: CCRF-CEM leukemia
HCT-116 colon = tested on: HCT-116 colon
HOP-92 NSCLC = tested on: HOP-92 NSCLC
OVCAR-8 ovarian = tested on: OVCAR-8 ovarian
SF-539 CNS = tested on: SF-539 CNS
SK-MEL-5 melanoma = tested on: SK-MEL-5 melanoma
SW-620 colon = tested on: SW-620 colon
UO-31 renal = tested on: UO-31 renal

Row | Compound | TGI (A549 NSCLC) | TGI (CAKI-1 renal) | TGI (CCRF-CEM leukemia) | TGI (HCT-116 colon) | TGI (HOP-92 NSCLC) | TGI (OVCAR-8 ovarian) | TGI (SF-539 CNS) | TGI (SK-MEL-5 melanoma) | TGI (SW-620 colon) | TGI (UO-31 renal) | GI50 (CAKI-1 renal) | GI50 (HCT-116 colon) | GI50 (OVCAR-8 ovarian) | GI50 (SK-MEL-5 melanoma) | GI50 (UO-31 renal)
1 | CC(=O)N[C@@H](Cc1ccc(O)cn1)C(=O)NCc1ccc2c(c1)OCO2 | > 100 µM | > 100 µM | > 100 µM | > 100 µM | > 100 µM | > 100 µM | > 100 µM | > 100 µM | > 100 µM | > 100 µM |  |  |  |  | 
2 | CCCCCCCCCCCCCCCCOCC(CC(F)(F)P(=O)(O)O)OC(C)=O (stereo not drawn) | > 50 µM | > 50 µM |  | > 50 µM | > 50 µM |  |  | > 50 µM | > 50 µM | > 50 µM |  |  |  |  | 
3 | CC1CN=C(c2cccc(OCc3ccc(COc4cccc(C5=NCC(C)N5)c4)cc3)c2)N1 (stereo not drawn) | > 100 µM | > 100 µM | 66.8 µM | > 100 µM | > 100 µM | > 100 µM | 98.7 µM | > 100 µM | > 100 µM | > 100 µM |  |  |  |  | 
4 | COc1ccc(C2CC(c3c(C)nn(-c4ccccc4)c3-c3ccc(C)cc3O)=NN2c2ccccc2)cc1 (stereo not drawn) | > 100 µM | > 100 µM | > 100 µM | > 100 µM | > 100 µM | > 100 µM | > 100 µM | > 100 µM | > 100 µM | > 100 µM |  |  |  |  | 
5 | Brc1ccc(N2C[N+](c3ccc(Br)cc3)=NC(c3ccccc3)=N2)cc1 | 33.6 µM and > 100 µM | 33.3 µM and > 100 µM |  | 32.9 µM and > 100 µM | 34.1 µM and > 100 µM | 41.9 µM and > 100 µM | 29.8 µM and > 100 µM | 29.4 µM and > 100 µM | 40.9 µM and > 100 µM | 27.6 µM and > 100 µM |  |  |  |  | 
6 | CCCCc1ccc2[n+](c1)C(C(=O)OCC)=PC2 (stereo not drawn) | > 100 µM | > 100 µM | > 100 µM | > 100 µM | > 100 µM | > 100 µM | > 100 µM | > 100 µM | > 100 µM |  |  |  |  |  | 
7 | O=c1c(Cc2ccc(Cl)cc2)nnc2sc(-c3ccc([N+](=O)[O-])cc3)nn12 | > 100 µM | > 100 µM | 55.8 µM | 48.8 µM | > 100 µM | > 100 µM |  |  | 80.8 µM | > 100 µM |  |  |  |  | 
8 | O=C1c2ccccc2NC2C(O)c3ccccc3N12 (stereo not drawn) | 61.5 µM | > 100 µM | 54.6 µM | > 100 µM | > 100 µM | > 100 µM | > 100 µM | > 100 µM | > 100 µM | > 100 µM |  |  |  |  | 
9 | O=C(c1cccs1)N(C(=S)N1CCN(c2ccccc2)CC1)c1ccccc1 | > 100 µM | > 100 µM | > 100 µM | > 100 µM | > 100 µM | > 100 µM | > 100 µM | > 100 µM | > 100 µM | > 100 µM |  |  |  |  | 
10 | O=c1oc2ccccc2cc1-c1nc2ccc([N+](=O)[O-])cc2o1 | > 100 µM | > 100 µM | > 100 µM | > 100 µM | > 100 µM | > 100 µM | > 100 µM | > 100 µM | > 100 µM | > 100 µM |  |  |  |  | 
11 | Oc1c2cccc1Cc1cccc3c1OCCOCCOCCOCCOc1c(cccc1Cc1cccc(c1O)C3)C2 | > 100 µM | > 100 µM | > 100 µM | > 100 µM | > 100 µM | > 100 µM | > 100 µM | > 100 µM | > 100 µM | > 100 µM |  |  |  |  | 
12 | O=C1/C(=C/c2cccc(Oc3ccccc3)c2)N=C(c2ccccc2)N1c1nc2ccc(Sc3ccccc3)cc2[nH]1 | > 100 µM | > 100 µM | > 100 µM | > 100 µM | > 100 µM | > 100 µM |  | 75.3 µM | > 100 µM | > 100 µM |  |  |  |  | 
13 | Oc1ccc2ccccc2c1-c1nnc(CCCCCCCCc2nnc(-c3c(O)ccc4ccccc34)o2)o1 | 25 µM and 32.9 µM | 3.11 µM | > 60.3 µM | 13.7 µM and > 50.3 µM | > 79 µM |  | 16.4 µM | 8.59 µM and 44.2 µM | 25 µM and > 43.2 µM | 19.2 µM and 15.4 µM | 0.698 µM | 0.796 µM | 0.317 µM | 3.15 µM | 0.93 µM
14 | O=C1CSC2(CC(/C=C/C=C/c3ccccc3)=NN2c2cccc(S(=O)(=O)O)c2)N1c1nc2ccccc2s1 (stereo not drawn) | > 100 µM | > 100 µM | 58.4 µM | > 100 µM | > 100 µM | > 100 µM | > 100 µM | > 100 µM | > 100 µM | > 100 µM |  |  |  |  | 
15 | CN(C)c1ccc(/C=C(\NC(=O)c2ccccc2)C(=O)Nc2ccccc2C(=O)NN2C(=O)CSC2c2ccc(N(C)C)cc2)cc1 (stereo not drawn) | > 100 µM | > 100 µM | > 100 µM | > 100 µM | > 100 µM | > 100 µM | > 100 µM | > 100 µM | > 100 µM | > 100 µM |  |  |  |  | 
16 | O=[N+]([O-])c1ccc2nc3ccc([N+](=O)[O-])cn3c2c1 | > 100 µM | 89.2 µM | > 100 µM | > 100 µM | > 100 µM | > 100 µM | > 100 µM | > 100 µM | > 100 µM | > 100 µM |  |  |  |  | 
17 | Cc1[nH]c(=O)nc(N/N=C/c2ccc(Cl)c(Cl)c2)c1C(=O)Nc1ccc(Cl)c(Cl)c1 | 38.9 µM | 33.3 µM | > 23 µM | > 20.5 µM | 39.3 µM | 14.8 µM | 41.2 µM | 22.8 µM | > 30 µM | > 56.2 µM |  |  |  |  | 
18 | COc1cc(C(=O)Nc2nnc(S(N)(=O)=O)s2)cc(OC)c1OC | > 100 µM | > 100 µM |  | > 100 µM | > 100 µM | > 100 µM | > 100 µM | > 100 µM | > 100 µM | > 100 µM |  |  |  |  | 
19 | O=C(Cn1c2ccc(Br)cc2c2nc3ccccc3nc21)NC1CCCCC1 | > 100 µM | > 100 µM |  | > 100 µM | > 100 µM | > 100 µM |  | > 100 µM | > 100 µM | > 100 µM |  |  |  |  | 
20 | O=S1(=O)NNC(=NCc2ccc(F)cc2)c2ccccc21 | > 100 µM | > 100 µM | > 72.7 µM | > 100 µM | > 83.5 µM | > 100 µM | > 100 µM | > 100 µM | > 100 µM | > 100 µM |  |  |  |  | 
21 | O=CNc1cccc2c3c([nH]c12)CCCCCC3 | > 100 µM | > 100 µM | > 100 µM | > 100 µM | > 100 µM | > 100 µM | > 100 µM | > 100 µM | > 100 µM | > 100 µM |  |  |  |  | 
